# Source: ChEMBL document CHEMBL2417513, “Selective activity of 2,4-diaryl-1,2,3,4-tetrahydroquinolines on Trypanosoma cruzi epimastigotes and amastigotes expressing β-galactosidase” (Bioorg Med Chem Lett, 2013)
# Tests used:
# [1] = Cytotoxicity against mouse NCTC-929 cells after 48 hrs by resazurin based fluorescence assay; assay type: cell-based; conditions: for LC50: nctc-929, 48 h; for CC50 at 48 h: NCTC-929 cells, read-out: LC50
# Trypanosoma cruzi [2] = assay: Antiparasitic activity against epimastigotes of Trypanosoma cruzi CL Brener expressing Escherichia coli lacZ gene […] assessed as parasite growth inhibition at 32 uM after 72 hrs by colorimetric assay; assay type: functional; design: scale not given: the % may be the effect or the level left
# Trypanosoma cruzi [3] = assay: Antiparasitic activity against epimastigotes of Trypanosoma cruzi CL Brener expressing Escherichia coli lacZ gene […] assessed as parasite growth inhibition after 72 hrs by colorimetric assay; assay type: functional, organism-based
# [4] = Cytotoxicity against mouse NCTC-929 cells at 256 uM after 48 hrs by resazurin based fluorescence assay; assay type: cell-based; conditions: nctc-929, 48 h
# [5] = Selectivity index, ratio of LC50 for mouse NCTC-929 cells to IC50 for epimastigotes of Trypanosoma cruzi CL Brener; assay type: toxicity, cell-based; conditions: read-out: Ratio LC50/IC50
# Trypanosoma cruzi [6] = assay: Antiparasitic activity against amastigotes of Trypanosoma cruzi CL Brener expressing Escherichia coli lacZ gene infected in mouse NCTC-929 cells assessed as parasite growth inhibition at 32 uM after 7 days by colorimetric assay; assay type: functional; design: scale not given: the % may be the effect or the level left
# Trypanosoma cruzi [7] = assay: Antiparasitic activity against amastigotes of Trypanosoma cruzi CL Brener expressing Escherichia coli lacZ gene infected in mouse NCTC-929 cells assessed as parasite growth inhibition at 16 uM after 7 days by colorimetric assay; assay type: functional; design: scale not given: the % may be the effect or the level left
# Trypanosoma cruzi [8] = assay: Antiparasitic activity against amastigotes of Trypanosoma cruzi CL Brener expressing Escherichia coli lacZ gene infected in mouse NCTC-929 cells assessed as parasite growth inhibition at 8 uM after 7 days by colorimetric assay; assay type: functional; design: scale not given: the % may be the effect or the level left
# Trypanosoma cruzi [9] = assay: Antiparasitic activity against amastigotes of Trypanosoma cruzi CL Brener expressing Escherichia coli lacZ gene infected in mouse NCTC-929 cells assessed as parasite growth inhibition at 4 uM after 7 days by colorimetric assay; assay type: functional; design: scale not given: the % may be the effect or the level left
# Trypanosoma cruzi [10] = assay: Antiparasitic activity against amastigotes of Trypanosoma cruzi CL Brener expressing Escherichia coli lacZ gene infected in mouse NCTC-929 cells assessed as parasite growth inhibition at 2 uM after 7 days by colorimetric assay; assay type: functional; design: scale not given: the % may be the effect or the level left
# Trypanosoma cruzi [11] = assay: Antiparasitic activity against amastigotes of Trypanosoma cruzi CL Brener expressing Escherichia coli lacZ gene infected in mouse NCTC-929 cells assessed as parasite growth inhibition after 7 days by colorimetric assay; assay type: functional, organism-based; conditions: NCTC-929, 168 h
# [12] = Selectivity index, ratio of LC50 for mouse NCTC-929 cells to IC50 for amastigotes of Trypanosoma cruzi CL Brener; assay type: toxicity, cell-based; conditions: read-out: Ratio LC50/IC50
# Trypanosoma cruzi [13] = assay: Antiparasitic activity against amastigotes of Trypanosoma cruzi CL Brener expressing Escherichia coli lacZ gene infected in mouse NCTC-929 cells assessed as parasite growth inhibition at 1 uM after 7 days by colorimetric assay; assay type: functional; design: scale not given: the % may be the effect or the level left
# Trypanosoma cruzi [14] = assay: Antiparasitic activity against amastigotes of Trypanosoma cruzi CL Brener expressing Escherichia coli lacZ gene infected in mouse NCTC-929 cells assessed as parasite growth inhibition at 0.5 uM after 7 days by colorimetric assay; assay type: functional; design: scale not given: the % may be the effect or the level left
SMILES,LC50 [1],Activity (Trypanosoma cruzi [2]) [%],IC50 (Trypanosoma cruzi [3]) [µM],Activity [4],CC50 at 48 h [1] [µM],selectivity ratio [5],Activity (Trypanosoma cruzi [6]) [%],Activity (Trypanosoma cruzi [7]) [%],Activity (Trypanosoma cruzi [8]) [%],Activity (Trypanosoma cruzi [9]) [%],Activity (Trypanosoma cruzi [10]) [%],IC50 (Trypanosoma cruzi [11]) [µM],selectivity ratio [12],Activity (Trypanosoma cruzi [13]) [%],Activity (Trypanosoma cruzi [14]) [%]
COc1ccc([C@@H]2c3ccc([N+](=O)[O-])cc3N[C@H](c3ccccc3)[C@H]2C)cc1,ND(Insoluble),83.67,< 8,8.43%,,,,,,,,,,,
COc1ccc([C@@H]2c3cc(N)ccc3N[C@H](c3ccccc3)[C@H]2C)cc1,,97.06,< 8,85.85%,9.56,> 1.19,,,,,,,,,
COc1ccc([C@@H]2c3cccc(N)c3N[C@H](c3ccccc3)[C@H]2C)cc1,ND(Insoluble),79.95,< 8,66.33%,,,,,,,,,,,
COc1ccc([C@@H]2c3ccccc3N(Cc3ccccc3)C[C@H]2C)cc1,ND(Insoluble),14.08,,42.15%,,,,,,,,,,,
COc1ccc([C@@H]2c3cc(OC)ccc3N(Cc3ccccc3)C[C@H]2C)cc1,,88.64,7.67,25.02%,> 256,> 33.4,100,100,100,46.33,25.86,4.27,> 59.9,,
COc1ccc([C@@H]2c3cc(Cl)ccc3N(Cc3ccccc3)C[C@H]2C)cc1,,100,6.39,ND(Insoluble),23.6,3.69,,,,,,,,,
COc1cc([C@@H]2c3cccc([N+](=O)[O-])c3N[C@H](c3ccccc3)[C@H]2C)ccc1O,,86.78,< 8,84.75%,< 8,,,,,,,,,,
COc1cc([C@@H]2c3ccccc3N[C@H](c3ccccc3)[C@H]2C)ccc1O,,86.23,< 8,84.12%,13,> 1.63,,,,,,,,,
COc1cc([C@@H]2c3cccc(C#N)c3N[C@H](c3ccccc3)[C@H]2C)ccc1O,,95.56,8.29,86.23%,7.75,0.93,,,,,,,,,
COc1cc([C@@H]2c3cccc([N+](=O)[O-])c3N[C@H](c3ccc(O)cc3)[C@H]2C)ccc1O,,99.73,< 8,85.46%,14.4,> 1.79,,,,,,,,,
COc1cc([C@@H]2c3cccc(N)c3N[C@H](c3ccccc3)[C@H]2C)ccc1O,,98.7,< 8,86.9%,< 8,,,,,,,,,,
COc1cc([C@@H]2c3cccc(C#N)c3N[C@H](c3ccc(O)cc3)[C@H]2C)ccc1O,,98.75,< 8,85.83%,12.8,1.59,,,,,,,,,
COc1cc([C@@H]2c3cccc([N+](=O)[O-])c3N[C@H](c3ccc([N+](=O)[O-])cc3)[C@H]2C)ccc1O,,92.82,< 8,87.71%,< 8,,,,,,,,,,
COc1cc([C@@H]2c3cccc([N+](=O)[O-])c3N[C@H](c3ccccc3[N+](=O)[O-])[C@H]2C)ccc1O,,82.19,,ND(Insoluble),15.9,,,,,,,,,,
COc1cc([C@@H]2c3cccc(C#N)c3N[C@H](c3ccc([N+](=O)[O-])cc3)[C@H]2C)ccc1O,,66.81,4.38,48.76%,213,48.6,,,51.5,33.77,,7.66,27.8,,
COc1ccc([C@@H]2c3ccccc3N[C@H](c3ccccc3)[C@H]2C)cc1,,95.98,5.94,43.05%,> 256,> 43.1,100,99.12,52.21,,,7.1,> 36,,
CCc1ccc2c(c1)[C@@H](c1ccc(OC)cc1)[C@H](C)[C@@H](c1ccccc1)N2,,95.85,3.6,0%,> 256,> 71.1,63.72,47.35,58.63,19.11,,7.13,> 35.9,,
COc1ccc([C@@H]2c3cc(OC)ccc3N[C@H](c3ccccc3)[C@H]2C)cc1,,53.99,< 8,0%,> 256,> 32,,60.71,58.12,,,< 8,> 32,,
COc1ccc([C@@H]2c3cc([N+](=O)[O-])ccc3N[C@H](c3ccccc3)[C@H]2C)cc1,,76.03,< 8,ND(Insoluble),16,> 2,,,,,,,,,
COc1ccc([C@@H]2c3cc(Cl)ccc3N[C@H](c3ccccc3)[C@H]2C)cc1,ND(Insoluble),88.62,7.86,11.72%,,,,,,,,,,,
COc1ccc([C@@H]2c3cccc([N+](=O)[O-])c3N[C@H](c3ccccc3)[C@H]2C)cc1,,87.22,,ND(Insoluble),28.4,,,,,,,,,,
COc1ccc([C@@H]2c3c(cccc3[N+](=O)[O-])N[C@H](c3ccccc3)[C@H]2C)cc1,,78.69,< 8,ND(Insoluble),27.6,> 3.45,,,,,,,,,
O=C(Cn1ccnc1[N+](=O)[O-])NCc1ccccc1 [BENZNIDAZOLE],,66.24,27.1,17.38%,> 256,> 9.44,100,100,96.63,74.71,64.37,0.8,> 320,55.64,41.64
